Experimental data from patent US6767715B2, “Nitroso compounds and their use as spin traps” (Randox Laboratories Ltd., priority 2000, dated 2004).
“Also recorded” adds a separate entry of the source.

What was measured:
[1] = Spin trapping of SO3− (horseradish peroxidase/H2O2/sulphite), ESR detection; details: for optimal concentration of spin trap: 25 min incubation at room temperature; for signal/marker ratio: at optimal concentration (DBNBS 17.72 mM, DCNBS 20-25 mM)
Experimental: (§1) ESR spectra were obtained using a prototype spectrometer (Jeol (U.K) Ltd., Welwyn Garden City, England) equipped with a TE011 cylindrical cavity. Samples were analysed at room temperature in a WG-LC-11 quartz flat cell (Wilmad-Glass, Buena, N.J.). In general the instrument parameters were: microwave frequency 9.2 GHz, microwave power 4 mW, centre field (CF) 336.7 mT, sweep width (SW) ±5 mT, number of data points 4095, modulation frequency 100 kHz. For the spin traps reacted with horseradish peroxidase/H2O2/sulphite: sweep time 200 s, time constraint 0.1 s, modulation width 0.05. For the spin traps reacted with the oxidant and NO; sweep time 150 s, time constraint 0.3 s, modulation width 0.2 mT. A JEOL ES-DM1 digital manganese oxide marker (0.03 mm of the glass tube inserted per unit on the dial setting) with a dial setting of 500 was used to ensure the reproducibility between samples and to identify the position of the signals in the microwave field.
Solutions of the spin traps DBNBS, DCNBS and DMNBS (40 mM) (25, 50, […], 110.75, 125 and 156.25 μl for final concentrations of 4, 8, 14.68, 17.72, 20 and 25 mM in PBS) were added to 8 μl horseradish peroxidase (91 μM in PBS), 8 μl K2SO3 (100 mM in water) and 12.5 μl H2O2 (5 mM in PBS). The difference in the volume comprised PBS (pH 7.4). The final volume of the reaction mixture was 250 μl. The reaction mixture was mixed thoroughly and analysed by ESR spectroscopy after 25 min incubation at room temperature. Controls were run using individual reactants as well as the reaction mixture above in the absence of the spin traps.

[2] = Reaction of spin traps with nitric oxide, ESR detection; details: for time at which reaction with NO reaches a maximum / limit of detection for NO (S/N ratio equals 3) / limit of quantitation for NO (S/N ratio equals 10): spin trap 0.15M; for time at which reaction with NO reaches a maximum / spin trap concentration giving maximum signal intensity / plateau: NO 1 mM; for time at which reaction with NO reaches a maximum: Tris-HCl pH 7.4; for spin trap concentration giving maximum signal intensity / plateau: DBNBS incubated 26 hr, DCNBS 22 hr; for limit of detection for NO (S/N ratio equals 3) / limit of quantitation for NO (S/N ratio equals 10): DBNBS 50 hr, DCNBS 20 hr, linear part of curve 0 to 10 μM
Experimental: as §1
The apparatus shown in FIG. 1 was flushed with nitrogen for 15 min. The vacutainer containing deionised water (4 ml) was then connected to the system and flushed with nitrogen for a further 15 min, to remove any oxygen present in the system, and therefore to prevent the formation of nitrogen dioxide. The NO gas was bubbled through the deionised water via the system for 45 min. The small amount of nitrogen dioxide present in the pressurised NO container was removed by bubbling through two bottles of 5M NaOH. The gas was then bubbled through a scrubbing bottle containing deionised water to remove any alkaline aerosol contamination. Any excess of NO after the deionised water step was bubbled through a scrubbing bottle containing 1M potassium permanganate/1M NaOH to prevent excess NO escaping from the fume hood. The concentration of NO in the resulting NO-saturated water was taken to be 2.0 mM.
Samples of DBNBS, DCNBS and DMNBS were weighed into vacutainers and evacuated. Tris-HCl buffer, 0.01M, pH 7.4, was deoxygenated by bubbling with nitrogen gas for 15 min. The deoxygenated buffer was added to the spin traps by a gas tight syringe to give a final spin trap concentration of 0.30M. The spin trap solution was briefly flushed with nitrogen and was then ready for use.
NO-saturated water (1 ml) was added to 1 ml of each of the spin trap solutions (DBNBS, DCNBS and DMNBS). The final concentrations of the spin traps were 0.15M and NO 1 mM. Parallel blanks were carried out by adding 1 ml of deoxygenated water to the spin trap solutions. At each time point samples were taken from test solutions and blanks for ESR spectroscopic analysis and the blank was substracted from the spectra.
The spin trap solutions were prepared as above to give final concentrations of 0.05, 0.1, 0.15, 0.2 and 0.25M in the reaction mixtures and the parallel blanks. The saturated NO solution (0.5 ml, final concentration 1 mM) was added to the test solutions and the deoxygenated water (0.5 ml) was added to the blanks. The reaction mixtures with DBNBS were incubated for 26 hr. while those with DCNBS were incubated for 22 hr. before analysis by ESR spectroscopy. The blanks were subtracted from their parallel test spectra respectively.
The concentration of NO in NO saturated water is taken to be 2.0 mM. This NO solution was diluted with deoxygenated water to give final concentrations in the reaction mixture of 0, 0.25, 0.5, 1, 2.5, 5, 10, 50 and 100 μM. The NO solution was added to DBNBS and to DCNBS to give a final spin trap concentration of 0.15M. The blank (or zero point) was ran by adding 0.5 ml of deoxygenated deionised water to the spin trap solutions. The reaction mixture containing DBNBS was incubated for 50 hr, and that containing DCNBS was incubated for 20 hr. The signal to noise ratio was calculated from each spectrum. All withdrawals and additions of solutions were carried out using a gas-tight syringe.

[3] = Reaction of spin traps with oxidant in CAPD dialysate, ESR detection; details: oxidant system; for final nominal concentration at which spin trap reached an excess: 60 μl dialysate, 25 min at room temperature; for signal/marker ratio: DBNBS at 1.2 mM, DCNBS at 2.5 mM
Experimental: as §1
Dialysate from a patient with renal failure on Continuous Ambulatory Peritoneal Dialysis (CAPD) was used for this study. The dialysate was collected when the dialysate bag was changed.
Solutions of 10 mM DBNBS and DCNBS (5, 8, 12, 25 and 30 μl for final concentrations of 0.5, 0.8, 1.2, 2.5 and 3.0 mM) were added to 60 μl of the dialysate. The difference in volume comprised PBS. The reaction mixture was mixed thoroughly and analysed by ESR spectroscopy after 25 min incubation at room temperature.

[4] = Solubility of the spin trap in aqueous systems; format: physicochemical; details: Sodium Salt

ESR signal height for SO3− adduct relative to DBNBS-d2-15N ([1]; SO3− generated from HRP, H2O2, SO3 2−)	optimal concentration of spin trap ([1]; SO3− system)	signal/marker ratio ([1]; SO3− system)	sensitivity relative to DBNBS ([1]; SO3− system, at optimal concentrations)	Structure (SMILES)	time at which reaction with NO reaches a maximum [2]	final nominal concentration at which spin trap reached an excess [3]	signal/marker ratio [3]	spin trap concentration giving maximum signal intensity / plateau [2]	limit of detection for NO (S/N ratio equals 3) [2]	limit of quantitation for NO (S/N ratio equals 10) [2]	solubility compared with DBNBS [4]
more than three times				Cc1cc(S(=O)(=O)[O-])cc(C)c1N=O.[Na+] [DMNBS, 3,5-Dimethyl-4-nitrosobenzenesulphonate, Sodium Salt]	24 to 28 h						
	17.72 mM	3.33		O=Nc1c(Br)cc(S(=O)(=O)[O-])cc1Br.[Na+] [DBNBS, 3,5-dibromo-4-nitrosobenzenesulphonate, sodium salt, reference compound]	approximately 50 hr	ca. 1.2 mM	0.516	0.15 M	0.23 µM	0.92 µM	
	20 to 25 mM	10.62	3 times	O=Nc1c(Cl)cc(S(=O)(=O)[O-])cc1Cl.[Na+] [DCNBS, 3,5-Dichloro-4-nitrosobenzenesulphonate, Sodium Salt]	20 to 24 h	2.5 mM	0.521	0.05 to 0.40 M	4.06 µM	17.30 µM	improved solubility; also recorded: more soluble than DBNBS
